Assay results reported in US7569549B2, “Isostructural pseudopolymorphs of 9-deoxo-9a-aza-9a-methyl-9a-homoerythromycin A” (Pliva Hrvatska D.O.O., priority 2002, dated 2009).

Tests used:
[1] = Intrinsic dissolution rate (Intrinsic Dissolution Tester, Van Kel Type); assay type: physicochemical; conditions: pH 3 and pH 6, 37° C.
Procedure: In addition to the above data, the intrinsic dissolution rates (IDR's) for the new pseudopolymorph of the invention and the commercial dihydrate, at pH 3 and pH 6 and 37° C., were determined by Intrinsic Dissolution Tester, Van Kel Type.

[2] = Dissolution profiles by USP Method 2 (PharmaTest Dissolution Tester), dissolved content by HPLC; assay type: physicochemical
Procedure: The comparative dissolution profiles were determined by USP Method 2, PharmaTest Dissolution Tester, PTW SII; the content of dissolved 9-deoxo-9a-aza-9a-methyl-9a-homoerythromycin A was measured by HPLC. The data thus obtained are set forth in Table 6 below, and plotted in FIGS. 17 and 18.
The comparative dissolution profiles were determined by USP Method 2, PharmaTest Dissolution Tester, PTW SII; the content of dissolved 9-deoxo-9a-aza-9a-methyl-9a-homoerythromycin A was measured by HPLC. The data thus obtained are set forth in Table 9 below, and plotted in FIG. 22.

[3] = in vivo; conditions: rat, 50 mg/kg
Source text: 32 animals were studied using a cross-over experimental design experiment. A non-compartmental analysis was used to determine the concentrations of the respective materials in whole blood and plasma as a function of time.

[4] = Solid state stability by X-ray powder diffraction at varied humidity and temperature; assay type: physicochemical; conditions: 5% RH to 75% RH; 30° C. to 75° C.
Procedure: The solid state stability of the 9-deoxo-9a-aza-9a-methyl-9a-homoerythromycin A pseudopolymorph Ia (x=1, y=0) was determined by measuring the solid state x-ray powder diffraction pattern for this material at four different percent relative humidities (% RH), ranging from 5% RH to 75% RH, and at five different temperatures, increasing from 30° C. to 75° C. using Philips X'PertPRO powder X-ray diffractometer equipped with Anton Paar TTK-100 humidity camera used for non-ambient data collection.

[5] = Similarity factors (f2) calculated for the dissolution profiles; assay type: physicochemical
Procedure: In order to further assess the data from Table 6, similarity factors (f2) were calculated according to the method described in Note for Guidance on the Investigation of Bioavailability and Bioequivalence (EMEA, December 1998, London) for the dissolution profiles of the two species (9-deoxo-9a-aza-9a-methyl-9a-homoerythromycin A, pseudopolymorph Ia of the present invention, and commercial 9-deoxo-9a-aza-9a-methyl-9a-homoerythromycin A dihydrate).

Question: What does the source list for CC[C@H]1OC(=O)[C@H](C)[C@@H](O[C@H]2C[C@@](C)(OC)[C@@H](O)[C@H](C)O2)C(C)[C@@H](O[C@@H]2O[C@H](C)CC(N(C)C)[C@H]2O)[C@](C)(O)C[C@@H](C)CN(C)[C@H](C)[C@@H](O)[C@]1(C)O (stereo partly shown) [9-deoxo-9a-aza-9a-methyl-9a-homoerythromycin A dihydrate, reference compound]?
Answer: Intrinsic dissolution rate (IDR) [1]: about 1.8 mg min^−1 cm^−2; Percent dissolved ([2]; pH 3, 37° C., 5 minutes): 3.9%; Percent dissolved ([2]; pH 3, 37° C., 10 minutes): 8.1%; Percent dissolved ([2]; pH 3, 37° C., 20 minutes): 14.6%; Percent dissolved ([2]; pH 3, 37° C., 45 minutes): 26.7%; Percent dissolved ([2]; pH 3, 37° C., 60 minutes): 33.3%; Percent dissolved ([2]; pH 3, 37° C., 90 minutes): 39.1%; Percent dissolved ([2]; pH 6, 37° C., 5 minutes): 14.5%; Percent dissolved ([2]; pH 6, 37° C., 10 minutes): 27.3%; Percent dissolved ([2]; pH 6, 37° C., 20 minutes): 44.2%; Percent dissolved ([2]; pH 6, 37° C., 45 minutes): 69.1%; Percent dissolved ([2]; pH 6, 37° C., 60 minutes): 73.7%; Percent dissolved ([2]; pH 6, 37° C., 90 minutes): 75.0%; AUC(0-48) [3]: 31696.6 nghr/ml; Tmax ([3]; po): 2 h

Question: Which results are given for CC[C@H]1OC(=O)[C@H](C)[C@@H](O[C@H]2C[C@@](C)(OC)[C@@H](O)[C@H](C)O2)[C@H](C)[C@@H](O[C@@H]2O[C@H](C)C[C@H](N(C)C)[C@H]2O)[C@](C)(O)C[C@@H](C)CN(C)[C@H](C)[C@@H](O)[C@]1(C)O [Pseudopolymorph Ia, 9-deoxo-9a-aza-9a-methyl-9a-homoerythromycin A]?
Answer: Solid state stability (phase transitions by x-ray powder diffraction) [4]: no phase-transitions occur; Similarity factor (f2) ([5]; Batch 1 vs. Batch 2 of Example 19, pH = 3): 61.3; Similarity factor (f2) ([5]; Batch 1 vs. Batch 2 of Example 19, pH = 6): 63.1; Similarity factor (f2) ([5]; Batch 1 vs. Batch 3 of Example 19, pH = 3): 74.7; Similarity factor (f2) ([5]; Batch 1 vs. Batch 3 of Example 19, pH = 6): 75.4; Similarity factor (f2) ([5]; Batch 2 vs. Batch 3 of Example 19, pH = 3): 71.3; Similarity factor (f2) ([5]; Batch 2 vs. Batch 3 of Example 19, pH = 6): 75.3; Similarity factor (f2) ([5]; Dihydrate vs. Batch 1 of Example 19, pH = 3): 28.6; Similarity factor (f2) ([5]; Dihydrate vs. Batch 1 of Example 19, pH = 6): 25; Similarity factor (f2) ([5]; Dihydrate vs. Batch 2 of Example 19, pH = 3): 27.5; Similarity factor (f2) ([5]; Dihydrate vs. Batch 2 of Example 19, pH = 6): 22.2; Similarity factor (f2) ([5]; Dihydrate vs. Batch 3 of Example 19, pH = 3): 29.4; Similarity factor (f2) ([5]; Dihydrate vs. Batch 3 of Example 19, pH = 6): 23.7; Intrinsic dissolution rate (IDR) [1]: 2.5-2.8 mg min^−1 cm^−2; IDR higher than the IDR of the dihydrate ([1]; relative to dihydrate): 40 to 50%; Percent dissolved ([2]; pH 3, 37° C., 5 minutes, listed as Ia (Example 19, Batch 1)): 25.1%; Percent dissolved ([2]; pH 3, 37° C., 5 minutes, listed as Ia (Example 19, Batch 3)): 21.1%; Percent dissolved ([2]; pH 3, 37° C., 5 minutes, listed as Ia (Example 19 Batch 2)): 18.5%; Percent dissolved ([2]; pH 3, 37° C., 10 minutes, listed as Ia (Example 19, Batch 1)): 37.1%; Percent dissolved ([2]; pH 3, 37° C., 10 minutes, listed as Ia (Example 19, Batch 3)): 32.4%; Percent dissolved ([2]; pH 3, 37° C., 10 minutes, listed as Ia (Example 19 Batch 2)): 30.7%; Percent dissolved ([2]; pH 3, 37° C., 20 minutes, listed as Ia (Example 19, Batch 1)): 45.8%; Percent dissolved ([2]; pH 3, 37° C., 20 minutes, listed as Ia (Example 19, Batch 3)): 43.3%; Percent dissolved ([2]; pH 3, 37° C., 20 minutes, listed as Ia (Example 19 Batch 2)): 45.1%; Percent dissolved ([2]; pH 3, 37° C., 45 minutes, listed as Ia (Example 19, Batch 1)): 55.5%; Percent dissolved ([2]; pH 3, 37° C., 45 minutes, listed as Ia (Example 19, Batch 3)): 56%; Percent dissolved ([2]; pH 3, 37° C., 45 minutes, listed as Ia (Example 19 Batch 2)): 60.9%; Percent dissolved ([2]; pH 3, 37° C., 60 minutes, listed as Ia (Example 19, Batch 1)): 58.3%; Percent dissolved ([2]; pH 3, 37° C., 60 minutes, listed as Ia (Example 19, Batch 3)): 61.1%; Percent dissolved ([2]; pH 3, 37° C., 60 minutes, listed as Ia (Example 19 Batch 2)): 64.8%; Percent dissolved ([2]; pH 3, 37° C., 90 minutes, listed as Ia (Example 19, Batch 1)): 62.9%; Percent dissolved ([2]; pH 3, 37° C., 90 minutes, listed as Ia (Example 19, Batch 3)): 64.7%; Percent dissolved ([2]; pH 3, 37° C., 90 minutes, listed as Ia (Example 19 Batch 2)): 70%; Percent dissolved ([2]; pH 6, 37° C., 5 minutes, listed as Ia (Example 19, Batch 1)): 67.0%; Percent dissolved ([2]; pH 6, 37° C., 5 minutes, listed as Ia (Example 19, Batch 3)): 70.2%; Percent dissolved ([2]; pH 6, 37° C., 5 minutes, listed as Ia (Example 19 Batch 2)): 71.7%; Percent dissolved ([2]; pH 6, 37° C., 10 minutes, listed as Ia (Example 19, Batch 1)): 73.2%; Percent dissolved ([2]; pH 6, 37° C., 10 minutes, listed as Ia (Example 19, Batch 3)): 77.3%; Percent dissolved ([2]; pH 6, 37° C., 10 minutes, listed as Ia (Example 19 Batch 2)): 81.4%; Percent dissolved ([2]; pH 6, 37° C., 20 minutes, listed as Ia (Example 19, Batch 1)): 76.7%; Percent dissolved ([2]; pH 6, 37° C., 20 minutes, listed as Ia (Example 19, Batch 3)): 77%; Percent dissolved ([2]; pH 6, 37° C., 20 minutes, listed as Ia (Example 19 Batch 2)): 81.6%; Percent dissolved ([2]; pH 6, 37° C., 45 minutes, listed as Ia (Example 19, Batch 1)): 76.7%; Percent dissolved ([2]; pH 6, 37° C., 45 minutes, listed as Ia (Example 19, Batch 3)): 77.6%; Percent dissolved ([2]; pH 6, 37° C., 45 minutes, listed as Ia (Example 19 Batch 2)): 80.4%; Percent dissolved ([2]; pH 6, 37° C., 60 minutes, listed as Ia (Example 19, Batch 1)): 74.5%; Percent dissolved ([2]; pH 6, 37° C., 60 minutes, listed as Ia (Example 19, Batch 3)): 78%; Percent dissolved ([2]; pH 6, 37° C., 60 minutes, listed as Ia (Example 19 Batch 2)): 79.9%; Percent dissolved ([2]; pH 6, 37° C., 90 minutes, listed as Ia (Example 19, Batch 1)): 75.8%; Percent dissolved ([2]; pH 6, 37° C., 90 minutes, listed as Ia (Example 19, Batch 3)): 79.2%; Percent dissolved ([2]; pH 6, 37° C., 90 minutes, listed as Ia (Example 19 Batch 2)): 80%; AUC(0-12) higher relative to the commercial dihydrate [3]: approximately 20%; AUC(0-48) [3]: 35659.0 nghr/ml; Tmax [3]: 2 h

Question: What does the source list for CC[C@H]1OC(=O)[C@H](C)[C@@H](O[C@H]2C[C@@](C)(OC)[C@@H](O)[C@H](C)O2)[C@H](C)[C@@H](O[C@@H]2O[C@H](C)C[C@H](N(C)C)[C@H]2O)[C@](C)(O)C[C@@H](C)CN(C)[C@H](C)[C@@H](O)[C@]1(C)O [Pseudopolymorph Ik, 9-deoxo-9a-aza-9a-methyl-9a-homoerythromycin A]?
Answer: Percent dissolved ([2]; pH 6, 37° C., 5 minutes, listed as Ik (Example 6)): 99.8%; Percent dissolved ([2]; pH 6, 37° C., 10 minutes, listed as Ik (Example 6)): 99.9%; Percent dissolved ([2]; pH 6, 37° C., 20 minutes, listed as Ik (Example 6)): 97.1%; Percent dissolved ([2]; pH 6, 37° C., 45 minutes, listed as Ik (Example 6)): 97.6%
